Values after ≈ are worked out from the molar mass of the structure shown. Structures can show the parent of a compound that is named as a salt. Where two headings read alike, the source gives them in different places.
Tests used:
Assay type in all cases: cell-based
[1] = test system: Staphylococcus aureus 29213; assay: Determination of MIC against bacteria (Table 1), S. aureus 29213; details: read-out: minimum inhibitory concentration (MIC), S. aureus 29213
Experimental: (§1) Antibiotic indicator strains Escherichia coli strain 25922, Enterococcus faecalis 29212, Pseudomonas aeruginosa 27853, and Staphylococcus aureus 29213 are obtained from the American Type Tissue Culture Collection (ATCC) in Rockville, Md. The cystic fibrosis isolate, Pseudomonas aeruginosa 39324, is also obtained from ATCC. Bacteria are routinely cultivated in cation-supplemented Mueller-Hinton broth (CAMHB) or agar at 37° C.
(§2) The minimum inhibitory concentration (MIC) of glycosylated and non-glycosylated steroidal polyamines for antibiotic indicator strains is determined by dissolving the test compounds in deionized water to a final concentration of 1 mg per mL. […] These solutions are sterilized by filtration through 0.22 micron syringe filters.
(§3) Stock solutions of individual compounds are serially diluted (two-fold) in sterile CAMHB in 96-well tissue culture dishes (Falcon) and inoculated with antibiotic indicator strains that are prepared as described below.
(§4) Antibiotic indicator strains are grown in 5 mL of CAMHB for 3-4 h at 37° C. with shaking (200 rpm) on a New Brunswick rotary shaker. Bacteria are adjusted to a turbidity that matched a 0.5 McFarland standard (ca. 10^8 CFU per mL) in sterile 0.85% saline. These bacterial suspensions are diluted 1:20 in sterile 0.85% saline and 10 μL (ca. […]) of each suspension is used to inoculate individual wells of a 96 well plate that contained different concentrations of the test compounds. Following inoculation, the plates are sealed with plastic tape, incubated for 24 h at 37° C. and visually inspected for bacterial growth. CAMHB inoculated with each of the antibiotic test strains and uninoculated CAMBH plus each of the test compounds served as positive and negative controls.

[2] = test system: Pseudomonas aeruginosa 27853; assay: Determination of MIC against bacteria (Table 1), P. aeruginosa 27853; details: read-out: minimum inhibitory concentration (MIC), P. aeruginosa 27853
Experimental: as §1, §2, §3, §4

[3] = test system: Escherichia coli strain 25922; assay: Determination of MIC against bacteria (Table 1), E. coli 25922; details: read-out: minimum inhibitory concentration (MIC), E. coli 25922
Experimental: as §1, §2, §3, §4

[4] = test system: Enterococcus faecalis 29212; assay: Determination of MIC against bacteria (Table 1), E. faecalis 29212; details: read-out: minimum inhibitory concentration (MIC), E. faecalis 29212
Experimental: as §1, §2, §3, §4

[5] = test system: Pseudomonas aeruginosa 39324; assay: Determination of MIC against bacteria (Table 1), P. aeruginosa 39324 (cystic fibrosis isolate); details: read-out: minimum inhibitory concentration (MIC), P. aeruginosa 39324
Experimental: as §1, §2, §3, §4

[6] = Staphylococcus aureus, 29213, 24 h
[7] = Pseudomonas aeruginosa, 27853, 24 h
[8] = Enterococcus faecalis, 29212, 24 h
[9] = Pseudomonas aeruginosa, 39324, 24 h
[10] = Staphylococcus aureus, 29213, CAMHB, 24 h at 37° C., tested from 1.56 to 200 μg per mL
[11] = Pseudomonas aeruginosa, 39324, CAMHB, 24 h at 37° C., tested from 1.56 to 200 μg per mL
[12] = Pseudomonas aeruginosa, 27853, CAMHB, 24 h at 37° C., tested from 1.56 to 200 μg per mL
[13] = Escherichia coli, 25922, CAMHB, 24 h at 37° C., tested from 1.56 to 200 μg per mL
[14] = Enterococcus faecalis, 29212, CAMHB, 24 h at 37° C., tested from 1.56 to 200 μg per mL

| Structure (SMILES) | MIC [1, 6] | MIC [2, 7] | MIC ([3]; Escherichia coli, 25922, 24 h) | MIC [4, 8] | MIC [5, 9] | MIC [1, 10] | MIC [5, 11] | MIC [2, 12] | MIC [3, 13] | MIC [4, 14] |
| --- | --- | --- | --- | --- | --- | --- | --- | --- | --- | --- |
| C[C@H](CCC(=O)NCCCNCCCCNCCCN)[C@H]1CC[C@H]2[C@@H]3[C@H](O[C@H]4O[C@H](CO)[C@@H](O)[C@H](O)[C@H]4O)C[C@@H]4C[C@H](O)CC[C@]4(C)[C@H]3C[C@H](O[C@H]3O[C@H](CO)[C@@H](O)[C@H](O)[C@H]3O)[C@]12C [Compound C, 3α-hydroxy-7α,12α-di(1'α-glucosyl)-5β-cholan-24-oic acid, N-(4,9-diaza-12-aminododecyl)amide] | 200 µg/mL (≈ 218 µM) | 200 µg/mL (≈ 218 µM) | 200 µg/mL (≈ 218 µM) | > 200 µg/mL | – | – | – | – | – | – |
| C[C@H](CCC(=O)NCCCNCCCCNCCCN)[C@H]1CC[C@H]2[C@@H]3CC[C@@H]4C[C@H](O)CC[C@]4(C)[C@H]3C[C@H](O)[C@]12C [Compound A, 3α,12α-dihydroxy-7-deoxy-5β-cholan-24-oic acid, N-(4,9-diaza-12-aminododecyl)amide] | 6.25 µg/mL (≈ 10.8 µM) | 3.12 µg/mL (≈ 5.41 µM) | 12.5 µg/mL (≈ 21.7 µM) | 12.5 µg/mL (≈ 21.7 µM) | 25 µg/mL (≈ 43.3 µM) | – | – | – | – | – |
| C[C@H](CCC(=O)NCCNCCNCCNCCN)[C@H]1CC[C@H]2[C@@H]3[C@H](O[C@H]4O[C@H](CO)[C@@H](O)[C@H](O)[C@H]4O)C[C@@H]4C[C@H](O)CC[C@]4(C)[C@H]3C[C@H](O[C@H]3O[C@H](CO)[C@@H](O)[C@H](O)[C@H]3O)[C@]12C [Compound M, 3α-hydroxy-7α,12α-di(1'α-glucosyl)-5β-cholan-24-oic acid, N-(3,6,9-triaza-11-aminoundecyl)amide] | – | – | – | – | – | > 200 µg/mL | > 150 µg/mL | > 200 µg/mL | > 200 µg/mL | > 200 µg/mL |
| C[C@H](CCC(=O)NCCNCCNCCNCCNCCN)[C@H]1CC[C@H]2[C@@H]3[C@H](O)C[C@@H]4C[C@H](O)CC[C@]4(C)[C@H]3C[C@H](O)[C@]12C [Compound K, 3α,7α,12α-trihydroxy-12-deoxy-5β-cholan-24-oic acid, N-(3,6,9,12-tetraaza-14-aminotetradecyl)amide] | – | – | – | – | – | 37.5 µg/mL (≈ 60.2 µM) | 75 µg/mL (≈ 120 µM) | 75 µg/mL (≈ 120 µM) | 75 µg/mL (≈ 120 µM) | 15.7 µg/mL (≈ 25.2 µM) |
| C[C@H](CCC(=O)NCCNCCNCCNCCNCCN)[C@H]1CC[C@H]2[C@@H]3CC[C@@H]4C[C@H](O)CC[C@]4(C)[C@H]3CC[C@]12C [Compound N, 3α-hydroxy-7,12-dideoxy-5β-cholan-24-oic acid (or lithocholic acid), N-(3,6,9,12-tetraaza-14-aminotetradecyl)amide] | – | – | – | – | – | 50 µg/mL (≈ 84.6 µM) | 200 µg/mL (≈ 338 µM) | 200 µg/mL (≈ 338 µM) | > 200 µg/mL | 200 µg/mL (≈ 338 µM) |
| C[C@H](CCC(=O)NCCNCCNCCNCCN)[C@H]1CC[C@H]2[C@@H]3[C@H](O)C[C@@H]4C[C@H](O)CC[C@]4(C)[C@H]3C[C@H](O)[C@]12C [Compound J, 3α,7α,12α-trihydroxy-5β-cholan-24-oic acid, N-(3,6,9-triaza-11-aminoundecyl)amide] | – | – | – | – | – | 37.5 µg/mL (≈ 64.7 µM) | 37.5 µg/mL (≈ 64.7 µM) | 75 µg/mL (≈ 129 µM) | 75 µg/mL (≈ 129 µM) | 18.7 µg/mL (≈ 32.2 µM) |
| C[C@H](CCC(=O)NCCNCCNCCNCCNCCN)[C@H]1CC[C@H]2[C@@H]3CC[C@@H]4C[C@H](O)CC[C@]4(C)[C@H]3C[C@H](O)[C@]12C [Compound G, 3α,12α-dihydroxy-7-deoxy-5β-cholan-24-oic acid, N-(3,6,9,12-tetraaza-14-aminotetradecyl)amide] | – | – | – | – | – | 25 µg/mL (≈ 41.2 µM) | 50 to 100 µg/mL (≈ 82.4 to 165 µM) | 50 µg/mL (≈ 82.4 µM) | 100 µg/mL (≈ 165 µM) | 100 µg/mL (≈ 165 µM) |
| C[C@H](CCC(=O)NCCCNCCCCNCCCN)[C@H]1CC[C@H]2[C@@H]3[C@H](O)C[C@@H]4C[C@H](O)CC[C@]4(C)[C@H]3C[C@H](O)[C@]12C [Compound B, 3α,7α,12α-trihydroxy-5β-cholan-24-oic acid, N-(4,9-diaza-12-aminododecyl)amide] | 50 µg/mL (≈ 84.3 µM) | 100 to 200 µg/mL (≈ 169 to 337 µM) | 200 µg/mL (≈ 337 µM) | 200 µg/mL (≈ 337 µM) | 100 µg/mL (≈ 169 µM) | – | – | – | – | – |
| C[C@H](CCC(=O)NCCNCCNCCNCCN)[C@H]1CC[C@H]2[C@@H]3[C@H](O)C[C@@H]4C[C@H](O)CC[C@]4(C)[C@H]3CC[C@]12C [Compound I, 3α,7α-dihydroxy-12-deoxy-5β-cholan-24-oic acid, N-(3,6,9-triaza-11-aminoundecyl)amide] | – | – | – | – | – | 12.5 µg/mL (≈ 22.2 µM) | 50 µg/mL (≈ 88.7 µM) | 50 µg/mL (≈ 88.7 µM) | 25 µg/mL (≈ 44.3 µM) | 25 µg/mL (≈ 44.3 µM) |
| C[C@H](CCC(=O)NCCCNCCCCNCCCN)[C@H]1CC[C@H]2[C@@H]3CC[C@@H]4C[C@H](O)CC[C@]4(C)[C@H]3C[C@H](O[C@H]3O[C@H](CO)[C@@H](O)[C@H](O)[C@H]3O)[C@]12C [Compound D, 3α-hydroxy-7-deoxy-12α-(1'α-glucosyl)-5β-cholan-24-oic acid, N-(4,9-diaza-12-aminododecyl)amide] | 50 to 100 µg/mL (≈ 67.7 to 135 µM) | 100 to 200 µg/mL (≈ 135 to 271 µM) | 100 µg/mL (≈ 135 µM) | 200 µg/mL (≈ 271 µM) | – | – | – | – | – | – |
| C[C@H](CCC(=O)NCCNCCNCCNCCN)[C@H]1CC[C@H]2[C@@H]3CC[C@@H]4C[C@H](O)CC[C@]4(C)[C@H]3C[C@H](O)[C@]12C [Compound F, 3α,12α-dihydroxy-7-deoxy-5β-cholan-24-oic acid, N-(3,6,9-triaza-11-aminoundecyl)amide] | – | – | – | – | – | 25 µg/mL (≈ 44.3 µM) | 100 µg/mL (≈ 177 µM) | 100 µg/mL (≈ 177 µM) | 100 µg/mL (≈ 177 µM) | 100 µg/mL (≈ 177 µM) |
| C[C@H](CCC(=O)NCCCNCCCCNCCCN)[C@H]1CC[C@H]2[C@@H]3[C@H](O[C@H]4O[C@H](CO)[C@@H](O)[C@H](O)[C@H]4O)C[C@@H]4C[C@H](O)CC[C@]4(C)[C@H]3CC[C@]12C [Compound E, 3α-hydroxy-12-deoxy-7α-(1'α-glucosyl)-5β-cholan-24-oic acid, N-(4,9-diaza-12-aminododecyl)amide] | 25 µg/mL (≈ 33.8 µM) | 12.5 µg/mL (≈ 16.9 µM) | 12.5 µg/mL (≈ 16.9 µM) | 25 µg/mL (≈ 33.8 µM) | 12.5 µg/mL (≈ 16.9 µM) | – | – | – | – | – |
| NCCCNCCCCNCCCN [spermine, N-[N-(3-aminopropyl)-4-aminobutyl]-1,3-diaminopropane, reference compound] | – | – | – | – | – | > 200 µg/mL | > 150 µg/mL | > 200 µg/mL | > 200 µg/mL | > 200 µg/mL |
| C[C@H](CCC(=O)O)[C@H]1CC[C@H]2[C@@H]3CC[C@@H]4C[C@H](O)CC[C@]4(C)[C@H]3C[C@H](O)[C@]12C [deoxycholic acid sodium salt, reference compound] | > 200 µg/mL | > 200 µg/mL | – | > 200 µg/mL | > 200 µg/mL | – | – | – | > 200 µg/mL | – |
| C[C@H](CCC(=O)O)[C@H]1CC[C@H]2[C@@H]3[C@H](O)C[C@@H]4C[C@H](O)CC[C@]4(C)[C@H]3C[C@H](O)[C@]12C [cholic acid sodium salt, reference compound] | > 200 µg/mL | > 200 µg/mL | > 200 µg/mL | > 200 µg/mL | > 200 µg/mL | – | – | – | – | – |
| C[C@H](CCC(=O)NCCNCCNCCNCCNCCN)[C@H]1CC[C@H]2[C@@H]3[C@H](O[C@H]4O[C@H](CO)[C@@H](O)[C@H](O)[C@H]4O)C[C@@H]4C[C@H](O)CC[C@]4(C)[C@H]3C[C@H](O[C@H]3O[C@H](CO)[C@@H](O)[C@H](O)[C@H]3O)[C@]12C [Compound L, 3α-hydroxy-7α,12α-di(1'α-glucosyl)-5β-cholan-24-oic acid, N-(3,6,9,12-tetraaza-14-aminotetradecyl)amide] | – | – | – | – | – | > 200 µg/mL | > 150 µg/mL | > 200 µg/mL | > 200 µg/mL | > 200 µg/mL |
| NCCNCCNCCNCCN [tetraethylenepentamine, reference compound] | – | – | – | – | – | > 200 µg/mL | > 150 µg/mL | > 200 µg/mL | > 200 µg/mL | > 200 µg/mL |
